One assay has as its system H1299 cells. In words: Internalization of biotinylated peptide/S-PO complexes. The format is cell-based, human. On the procedure: A biotinylated/S-PO peptide or biotinylated/A-PO complex (A-PO for avidin-peroxidase) is prepared extemporaneously in two ways:
1) either in a peptide: S-PO or A-PO molar ratio of 4:1 (for example, 1.4 μg of peptide with a molecular weight of 3500 to 10 μg of S-PO; the weight of S-PO used varies depending on the peptides since their molecular weights are different).
2) or in a peptide: S-PO or A-PO molar ratio of 25:1 (for example 1.7 μg of peptide with a molecular weight of 3500 to 1 μg of S-PO).
The complexes are prepared by incubating the biotinylated peptide with S-PO or A-PO in PBS in a volume of 5 to 10 μl for 15 minutes at laboratory temperature. They are then diluted in 1 ml of complete culture medium, filtered on a 0.2 micron membrane and incubated with the cells for 4 hours. The cells are then washed three times with PBS.
To study the penetration of the complexes under a microscope, the cells are fixed as before for 15 minutes in ethanol at −20° C., they are washed with PBS, and the activity of the internalized peroxidase is shown by diaminobenzidine in the presence of H2O2. To measure the quantity of peptide/S-PO or A-PO complexes internalized, the cells are trypsinized, transferred into microtubes and counted. They are washed twice by centrifugation, then the residue is suspended in 200 μl of lysis buffer (Tris buffer, 0.1 M, pH8, 0.5% Nonidet). After 15 minutes, the peroxidase contained in the lysis buffer is dosed onto 96-well plates with ortho-dianisidine and H2O2 by comparison with a standard curve for S-PO. The reading is taken at 450 nm. The quantity contained in the different samples is expressed in picograms (pg) per 10^4 cells.
Table 7 below reports the results of evaluating the influence of SEQ ID NO: 1 on the penetration of peptides coupled to SEQ ID NO: 1 into H1299 cells, where
Concentration a: 25 peptides to one molecule of S-PO (1 μg),
Concentration b: 4 peptides to one molecule of S-PO (10 μg).

The test system of another assay is cells. Description: Penetration of biotinylated peptides inside cells (microscopy, S-PO coloration). The format is cell-based. The settings on record: biotinylated peptides 50 to 6 μg/ml, 1-18 hours, revealed with S-PO. Here is the method:
The cells are cultivated in the presence of the different peptides carrying, on the N-terminal side, biotin in decreasing concentrations (50 to 6 μg/ml) in the culture medium for variable times (1-18 hours).
At the end of the culture, the cells are washed three times with PBS (0.15 M NaCl buffered with 0.01 M potassium phosphate buffer pH 7.4) then fixed 15 minutes in ethanol at −20° C. The penetration of the peptide is evaluated after incubation for 30 minutes with streptavidin conjugated with peroxidase (abbreviated S-PO for streptavidin-peroxidase). Then, the S-PO is eliminated, and the cells are washed. […] With the other peptides, positive colorations, but of variable intensity, were noted.

[1] abbreviates: Conc. a: 25 peptides to one molecule of S-PO (1 μg).
The mark [2] stands for this setting: Conc. b: 4 peptides to one molecule of S-PO (10 μg).
Where [3] appears, read: peptide: S-PO complexes of 4:1, peptide concentration of 1 μg.

Where no end group is shown, it is not given here.

For the substance “SEQ ID NO: 4: Peptide corresponding to the hypervariable area CD3 of the anti-DNA monoclonal murine antibody F4.1 (RQKYNKRAMDY; Mus musculus x Rattus norvegicus)”, the S-PO internalized in the assay with H1299 cells (setting [1]) amounted to 2 pg/10^4 cells; in the assay with H1299 cells (setting [2]) it was 280 pg/10^4 cells. For the same substance, the intracellular cytochemical coloration result with cells is reported as “do not give any positive intracellular cytochemical coloration”.
Regarding “SEQ ID NO: 5: Peptide containing SEQ ID NO: 1 and SEQ ID NO: 4 (VKRGLKLRQKYNKRAMDY; Homo sapiens - Mus musculus - Rattus norvegicus)”, the S-PO internalized with H1299 cells (setting [1]) is recorded as 100 pg/10^4 cells; in the assay with H1299 cells (setting [2]), 6250 pg/10^4 cells. Besides, the intracellular cytochemical coloration result in the assay on cells is listed as “intense coloration”.
As for “SEQ ID NO: 6: Peptide containing part of CDR2 and CDR3 regions of monoclonal murine antibody F4.1 (TYYSDTVKGRFTRQKYNKRA; Mus musculus x Rattus norvegicus)”, the S-PO internalized in the assay on H1299 cells (setting [1]) was 1 pg/10^4 cells; in the assay on H1299 cells (setting [2]), 130 pg/10^4 cells. Also, in the assay on cells, the intracellular cytochemical coloration entry was “Faint coloration”.
The matching figures for “SEQ ID NO: 7: Peptide containing SEQ ID NO: 1 and SEQ ID NO: 6 (VKRGLKLTYYSDTVKGRFTRQYNKRA; Homo sapien - Mus musculus - Rattus norvegicus)”: 240 pg/10^4 cells, 220 pg/10^4 cells and “intense coloration”.
For “SEQ ID NO: 8: Peptide corresponding to the hypervariable CD3 region of human anti-DNA monoclonal antibody RTT79 (VRRSGRVVVPAAPRNRD; listed as Homo sapiens)”, in that order: 50 pg/10^4 cells, 1310 pg/10^4 cells and “Faint coloration”.
The matching figures for “SEQ ID NO: 9: Peptide containing SEQ ID NO: 1 and SEQ ID NO: 8 (VKRGLKLVRRSGRVVVPAAPRNRD; listed as Homo sapiens)”: 340 pg/10^4 cells, 8280 pg/10^4 cells and “intense coloration”.
Take “SEQ ID NO: 11: SEQ ID NO: 1 and CDR3 of the human anti-DNA monoclonal antibody RT72 (VKRGLKLGYYDFWSGPGKN; listed as Homo sapiens)”: the intracellular cytochemical coloration entry with cells was “do not give any positive intracellular cytochemical coloration”.
With “SEQ ID NO: 12: Peptide containing the NLS sequence of cells 3T3 and SEQ ID NO: 6 (NVKKPKLTYYSDTVKGRFTRQKYNKRA; Mus musculus x Rattus norvegicus)”, in the assay with cells, the intracellular cytochemical coloration result was “do not give any positive intracellular cytochemical coloration”.
As to “SEQ ID NO: 17: Peptide reacting with heparin derived from human lipoprotein E (LRKRLLRD; listed as Homo sapiens)”, the S-PO internalized in the assay with H1299 cells (setting [3]) was determined as 3 pg/10^4 cells. For the same substance, in the assay on cells, the intracellular cytochemical coloration result is reported as “do not give any positive intracellular cytochemical coloration”.
The matching figures for “SEQ ID NO: 18: Peptide reacting with heparin derived from the amino acid sequence of agrine (KSRK; listed as Homo sapiens)”: 3 pg/10^4 cells and “do not give any positive intracellular cytochemical coloration”.
For “SEQ ID NO: 19: Dimer of SEQ ID NO: 18 (KSRKKSRK; not fully specified; listed as Homo sapiens)”, in that order: 167 pg/10^4 cells and “Faint coloration”.

The values above are taken from patent publication US8003595B2, “Amino acid sequences facilitating penetration of a substance of interest into cells and/or cell nuclei” (Cellectis, priority 2000, dated 2011).
